Test results reported in US11905294B2, “Imidazo[1,5-a]pyrazine derivatives as PI3Kδ inhibitors” (BEIGENE, LTD., priority 2017, dated 2024).

Assays:
Format in all cases: biochemical
[1] = molecular target: PI3K (p110δ/p85α) (Homo sapiens, UniProt O00329); assay: PI3Kδ assay (ADP-Glo Kinase Assay); conditions: recombinant enzyme; IC50 (nM) or max inhibition (%) at 0.5 μM
Experimental: Compounds disclosed herein were tested for inhibition of PI3Kδ kinase activity using commercial ADP-Glo™ Kinase Assay (Promega Corporation) and following the manufacture's instruction. Briefly, recombinant PI3K (p110δ/p85α) enzyme, lipid kinase substrate and a serial dilution of compounds disclosed herein were incubated for 0.5 hr at room temperature. ATP was added to initiate the kinase reaction. After incubation for 1 hr at room temperature, ADP-Glo™ reagent was added to terminate the kinase reaction and deplete the remaining ATP. After incubation for 1 hr at room temperature, kinase detection reagent was added to simultaneously convert ADP to ATP and allow the newly synthesized ATP to be measured using a luciferase/luciferin reaction. After incubation for 0.5 hr at room temperature, the luminescence generated was measured on a PHERAstar FS plate reader (BMG LABTECH). The residual enzyme activity in presence of increasing concentrations of compounds was calculated based on the luminescence. The IC50 for each compound was derived from fitting the data to the four-parameter logistic equation by Graphpad Prism software.

[2] = molecular target: PI3K (p110α/p85α) (Homo sapiens, UniProt P42336); assay: PI3Kα assay (ADP-Glo Kinase Assay); conditions: recombinant enzyme; IC50 (nM) or max inhibition (%) at 0.5 μM
[3] = molecular target: PI3K (p110γ) (Homo sapiens, UniProt P48736); assay: PI3Kγ assay (ADP-Glo Kinase Assay); conditions: recombinant enzyme; IC50 (nM) or max inhibition (%) at 0.5 μM
[4] = molecular target: PI3K (p110β/p85α) (Homo sapiens, UniProt P42338); assay: PI3Kβ assay (ADP-Glo Kinase Assay); conditions: read-out: Enzyme activity IC50 PI3Kβ
PI3K (p110β/p85α), sequence (P42338 whole entry): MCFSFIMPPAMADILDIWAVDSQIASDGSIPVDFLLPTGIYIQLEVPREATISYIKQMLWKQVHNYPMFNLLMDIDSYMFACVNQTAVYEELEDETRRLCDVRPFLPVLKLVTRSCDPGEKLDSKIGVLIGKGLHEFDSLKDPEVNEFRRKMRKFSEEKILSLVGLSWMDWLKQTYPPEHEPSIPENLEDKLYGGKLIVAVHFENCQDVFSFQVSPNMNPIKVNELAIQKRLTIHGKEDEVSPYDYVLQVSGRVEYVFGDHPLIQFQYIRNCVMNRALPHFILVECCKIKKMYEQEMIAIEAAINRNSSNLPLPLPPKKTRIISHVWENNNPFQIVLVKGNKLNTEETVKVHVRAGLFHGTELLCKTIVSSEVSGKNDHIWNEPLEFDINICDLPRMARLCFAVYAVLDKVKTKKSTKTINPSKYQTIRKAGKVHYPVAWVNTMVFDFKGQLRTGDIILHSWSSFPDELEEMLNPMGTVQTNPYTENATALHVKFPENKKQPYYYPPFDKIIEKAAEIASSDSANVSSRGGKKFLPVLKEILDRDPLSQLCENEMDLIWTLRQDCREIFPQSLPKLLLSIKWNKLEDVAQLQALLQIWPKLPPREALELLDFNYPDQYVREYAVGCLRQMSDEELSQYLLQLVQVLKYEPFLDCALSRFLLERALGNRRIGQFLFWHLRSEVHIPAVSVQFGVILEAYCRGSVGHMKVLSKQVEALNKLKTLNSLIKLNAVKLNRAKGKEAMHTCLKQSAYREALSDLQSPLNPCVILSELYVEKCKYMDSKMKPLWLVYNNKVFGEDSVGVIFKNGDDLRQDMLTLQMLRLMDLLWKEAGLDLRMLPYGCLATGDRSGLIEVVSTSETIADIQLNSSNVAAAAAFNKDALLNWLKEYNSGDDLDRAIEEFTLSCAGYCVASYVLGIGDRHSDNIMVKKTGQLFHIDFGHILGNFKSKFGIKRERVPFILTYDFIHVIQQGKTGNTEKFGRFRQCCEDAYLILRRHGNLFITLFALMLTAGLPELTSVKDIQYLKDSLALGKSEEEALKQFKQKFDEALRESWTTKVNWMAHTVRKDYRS
PI3K (p110β/p85α), sequence (P27986 whole entry partner): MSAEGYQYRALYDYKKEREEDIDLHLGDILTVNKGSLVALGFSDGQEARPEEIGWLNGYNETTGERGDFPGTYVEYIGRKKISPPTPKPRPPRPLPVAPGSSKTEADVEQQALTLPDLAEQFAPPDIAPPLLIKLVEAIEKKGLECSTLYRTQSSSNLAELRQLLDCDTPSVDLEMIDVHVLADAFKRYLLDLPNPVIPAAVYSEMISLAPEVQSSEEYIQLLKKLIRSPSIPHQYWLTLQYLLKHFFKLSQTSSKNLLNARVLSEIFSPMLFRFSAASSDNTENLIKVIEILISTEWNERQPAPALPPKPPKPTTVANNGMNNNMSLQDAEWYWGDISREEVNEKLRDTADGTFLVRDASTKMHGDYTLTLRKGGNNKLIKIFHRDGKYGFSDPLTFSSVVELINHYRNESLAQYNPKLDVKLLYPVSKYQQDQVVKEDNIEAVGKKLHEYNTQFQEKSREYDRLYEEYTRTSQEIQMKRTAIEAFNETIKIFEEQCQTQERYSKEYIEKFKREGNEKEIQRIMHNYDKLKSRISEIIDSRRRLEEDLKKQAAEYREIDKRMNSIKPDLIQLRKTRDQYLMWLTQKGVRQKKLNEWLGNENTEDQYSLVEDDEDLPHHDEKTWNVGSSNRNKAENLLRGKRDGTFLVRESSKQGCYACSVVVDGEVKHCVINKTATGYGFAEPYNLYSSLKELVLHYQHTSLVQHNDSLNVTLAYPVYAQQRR

PI3K (p110δ/p85α), sequence (O00329 whole entry): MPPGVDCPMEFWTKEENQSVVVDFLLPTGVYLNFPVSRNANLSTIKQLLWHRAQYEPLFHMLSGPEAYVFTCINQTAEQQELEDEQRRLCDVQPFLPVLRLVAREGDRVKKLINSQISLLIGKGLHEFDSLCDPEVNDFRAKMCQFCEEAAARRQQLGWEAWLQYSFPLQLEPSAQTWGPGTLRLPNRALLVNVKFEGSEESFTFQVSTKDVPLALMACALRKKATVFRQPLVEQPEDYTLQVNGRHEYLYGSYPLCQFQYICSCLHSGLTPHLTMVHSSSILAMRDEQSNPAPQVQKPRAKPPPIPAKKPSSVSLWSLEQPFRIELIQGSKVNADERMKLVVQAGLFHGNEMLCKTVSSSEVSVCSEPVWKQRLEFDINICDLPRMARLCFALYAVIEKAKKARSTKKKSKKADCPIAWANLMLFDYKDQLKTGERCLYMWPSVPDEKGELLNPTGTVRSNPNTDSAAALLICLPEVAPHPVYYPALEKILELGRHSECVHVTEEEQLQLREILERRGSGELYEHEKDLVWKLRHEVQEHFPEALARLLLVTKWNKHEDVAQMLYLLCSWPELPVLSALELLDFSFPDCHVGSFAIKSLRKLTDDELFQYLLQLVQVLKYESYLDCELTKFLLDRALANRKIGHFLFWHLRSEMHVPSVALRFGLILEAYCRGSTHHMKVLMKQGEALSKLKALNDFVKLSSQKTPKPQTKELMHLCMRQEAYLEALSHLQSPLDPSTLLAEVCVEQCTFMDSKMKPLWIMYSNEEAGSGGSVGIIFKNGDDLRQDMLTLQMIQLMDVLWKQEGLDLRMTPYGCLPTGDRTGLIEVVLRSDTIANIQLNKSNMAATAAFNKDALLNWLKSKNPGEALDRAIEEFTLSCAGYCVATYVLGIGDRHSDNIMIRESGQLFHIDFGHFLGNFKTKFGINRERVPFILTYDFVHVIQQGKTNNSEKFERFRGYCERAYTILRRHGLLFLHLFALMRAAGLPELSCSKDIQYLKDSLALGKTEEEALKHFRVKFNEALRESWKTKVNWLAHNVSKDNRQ
PI3K (p110δ/p85α), sequence (P27986 whole entry partner): as the sequence (P27986 whole entry partner) above
PI3K (p110α/p85α), sequence (P42336 whole entry): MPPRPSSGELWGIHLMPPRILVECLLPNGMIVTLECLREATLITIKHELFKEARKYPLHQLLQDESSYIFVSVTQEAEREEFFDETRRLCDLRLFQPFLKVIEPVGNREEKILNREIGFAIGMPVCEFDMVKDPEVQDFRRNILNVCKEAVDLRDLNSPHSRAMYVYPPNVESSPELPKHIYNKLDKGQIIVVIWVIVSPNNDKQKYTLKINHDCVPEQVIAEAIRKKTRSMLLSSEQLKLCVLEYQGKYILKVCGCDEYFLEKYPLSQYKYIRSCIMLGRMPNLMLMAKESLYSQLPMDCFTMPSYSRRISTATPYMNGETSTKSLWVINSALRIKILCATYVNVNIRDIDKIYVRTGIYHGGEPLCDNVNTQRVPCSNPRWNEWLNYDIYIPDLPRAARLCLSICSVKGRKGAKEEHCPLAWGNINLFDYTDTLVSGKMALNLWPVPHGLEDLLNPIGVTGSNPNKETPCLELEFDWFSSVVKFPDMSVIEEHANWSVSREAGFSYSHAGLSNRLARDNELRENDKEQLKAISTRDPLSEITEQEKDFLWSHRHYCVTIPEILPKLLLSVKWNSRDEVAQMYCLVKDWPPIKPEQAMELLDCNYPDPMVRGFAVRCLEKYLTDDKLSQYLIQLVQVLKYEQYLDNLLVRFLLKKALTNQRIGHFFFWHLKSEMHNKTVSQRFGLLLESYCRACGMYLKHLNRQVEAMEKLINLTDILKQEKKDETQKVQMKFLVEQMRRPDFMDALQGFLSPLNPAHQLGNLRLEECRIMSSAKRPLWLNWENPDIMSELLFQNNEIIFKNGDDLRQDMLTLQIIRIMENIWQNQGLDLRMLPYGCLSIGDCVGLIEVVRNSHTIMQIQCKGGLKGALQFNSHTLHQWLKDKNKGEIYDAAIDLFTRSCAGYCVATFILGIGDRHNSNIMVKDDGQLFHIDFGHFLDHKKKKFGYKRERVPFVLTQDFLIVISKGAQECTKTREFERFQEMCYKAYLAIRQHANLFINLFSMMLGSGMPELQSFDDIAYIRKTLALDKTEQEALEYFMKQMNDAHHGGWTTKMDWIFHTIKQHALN
PI3K (p110α/p85α), sequence (P27986 whole entry partner): as the sequence (P27986 whole entry partner) above
PI3K (p110γ), sequence (P48736 whole entry): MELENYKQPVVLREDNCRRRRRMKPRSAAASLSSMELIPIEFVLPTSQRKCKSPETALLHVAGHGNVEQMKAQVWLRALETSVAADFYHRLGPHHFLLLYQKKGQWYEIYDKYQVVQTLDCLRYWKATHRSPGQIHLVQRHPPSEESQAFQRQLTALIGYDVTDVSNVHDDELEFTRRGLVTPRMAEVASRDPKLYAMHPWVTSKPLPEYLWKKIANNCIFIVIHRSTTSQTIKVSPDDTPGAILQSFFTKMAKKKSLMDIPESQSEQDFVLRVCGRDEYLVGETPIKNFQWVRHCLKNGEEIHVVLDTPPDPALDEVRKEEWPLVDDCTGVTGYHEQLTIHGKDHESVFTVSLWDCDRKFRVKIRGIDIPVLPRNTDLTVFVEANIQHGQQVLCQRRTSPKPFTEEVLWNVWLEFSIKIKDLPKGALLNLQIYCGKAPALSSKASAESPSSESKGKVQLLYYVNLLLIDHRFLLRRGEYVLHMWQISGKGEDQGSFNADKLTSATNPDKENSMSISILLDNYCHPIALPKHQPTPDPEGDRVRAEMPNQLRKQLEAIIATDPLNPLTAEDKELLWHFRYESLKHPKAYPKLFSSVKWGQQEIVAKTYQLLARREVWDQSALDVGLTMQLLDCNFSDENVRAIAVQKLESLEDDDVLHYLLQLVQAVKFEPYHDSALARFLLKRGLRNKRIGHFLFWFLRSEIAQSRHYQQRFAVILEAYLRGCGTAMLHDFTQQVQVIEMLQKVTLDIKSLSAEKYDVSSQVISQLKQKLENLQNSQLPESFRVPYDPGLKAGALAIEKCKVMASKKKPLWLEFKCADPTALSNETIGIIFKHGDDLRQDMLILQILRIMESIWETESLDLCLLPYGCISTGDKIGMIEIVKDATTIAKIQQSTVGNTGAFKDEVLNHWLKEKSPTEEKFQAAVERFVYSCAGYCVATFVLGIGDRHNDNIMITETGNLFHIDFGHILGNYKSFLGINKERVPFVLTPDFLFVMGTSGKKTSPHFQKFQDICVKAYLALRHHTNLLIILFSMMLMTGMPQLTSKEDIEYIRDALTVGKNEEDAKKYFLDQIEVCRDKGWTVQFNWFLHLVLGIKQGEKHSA

Compound | IC50 [1] [nM] | IC50 [2] [nM] | IC50 [3] [nM] | IC50 [4] [µM]
Cc1nc([C@@H](C)c2cc(Cl)c(F)c(C(=O)N[C@H]3CCC[C@H]3O)c2OC(C)C)n2ccnc(N)c12 [Compound 25, 3-((S)-1-(8-amino-1-methylimidazo[1,5-a]pyrazin-3-yl)ethyl)-5-chloro-6-fluoro-N-((1S,2R)-2-hydroxycyclopentyl)-2-isopropoxybenzamide] | 1.9 | 24000 | 6000 | 8.7
Cc1nc([C@@H](C)c2cc(Cl)c(F)c(C(=O)NCCC3CCOCC3)c2OC(C)C)n2ccnc(N)c12 [Compound 26, (S)-3-(1-(8-amino-1-methylimidazol[1,5-a]pyrazin-3-yl)ethyl)-5-chloro-6-fluoro-2-isopropoxy-N-(2-(tetrahydro-2H-pyran-4-yl)ethyl)benzamide] | 0.86 | 24000 | 6500 | 17
CNC(=O)c1c(F)c(Cl)cc([C@H](C)c2nc(C)c3c(N)nccn23)c1OC(C)C [Compound 27, (S)-3-(1-(8-amino-1-methylimidazo[1,5-a]pyrazin-3-yl)ethyl)-5-chloro-6-fluoro-2-isopropoxy-N-methylbenzamide] | 0.93 | 32000 | 3900 | 3
CCNC(=O)c1c(F)c(Cl)cc([C@H](C)c2nc(C)c3c(N)nccn23)c1OC(C)C [Compound 28, (S)-3-(1-(8-amino-1-methylimidazo[1,5-a]pyrazin-3-yl)ethyl)-5-chloro-6-fluoro-2-isopropoxy-N-ethyl-benzamide] | 1.2 | 24000 | 4800 | 6.8
Cc1nc([C@@H](C)c2cc(Cl)c(F)c(C(=O)NCC3CCN(C)CC3)c2OC(C)C)n2ccnc(N)c12 [Compound 30, (S)-3-(1-(8-amino-1-methylimidazo[1,5-a]pyrazin-3-yl)ethyl)-5-chloro-6-fluoro-2-isopropoxy-N-((1-methylpiperidin-4-yl)methyl)benzamide] | 0.97 | 17000 | 7700 | 14
Cc1nc([C@@H](C)c2cc(Cl)c(F)c(C(=O)NC[C@H]3CCCO3)c2OC(C)C)n2ccnc(N)c12 [Compound 31, 3-((S)-1-(8-amino-1-methylimidazo[1,5-a]pyrazin-3-yl)ethyl)-5-chloro-6-fluoro-2-isopropoxy-N-(((R)-tetrahydrofuran-2-yl)methyl)benzamide] | 3.1 | 25000 | 6200 | 16
Cc1nc([C@@H](C)c2cc(Cl)c(F)c(C(=O)NCc3ccccn3)c2OC(C)C)n2ccnc(N)c12 [Compound 33, (S)-3-(1-(8-amino-1-methylimidazo[1,5-a]pyrazin-3-yl)ethyl)-5-chloro-6-fluoro-2-isopropoxy-N-(pyridin-2-ylmethyl)benzamide] | 1.3 | 9300 | 2200 | 13
Cc1nc([C@@H](C)c2cc(Cl)c(F)c(C(=O)NC[C@H]3CCOC3)c2OC(C)C)n2ccnc(N)c12 [Compound 34, 3-((S)-1-(8-amino-1-methylimidazo[1,5-a]pyrazin-3-yl)ethyl)-5-chloro-6-fluoro-2-isopropoxy-N-(((R)-tetrahydrofuran-3-yl)methyl)benzamide] | 1.4 | 36000 | 3200 | 11
Cc1nc([C@@H](C)c2cc(Cl)c(F)c(C(=O)NC[C@@H]3CCOC3)c2OC(C)C)n2ccnc(N)c12 [Compound 35, 3-((S)-1-(8-amino-1-methylimidazo[1,5-a]pyrazin-3-yl)ethyl)-5-chloro-6-fluoro-2-isopropoxy-N-4(((S)-tetrahydrofuran-3-yl)methyl)benzamide] | 1.3 | 46000 | 6000 | 19
COc1ccc([C@@H](C)NC(=O)c2c(F)c(Cl)cc([C@H](C)c3nc(C)c4c(N)nccn34)c2OC(C)C)cc1 [Compound 36, 3-((S)-1-(8-amino-1-methylimidazo[1,5-a]pyrazin-3-yl)ethyl)-5-chloro-6-fluoro-2-isopropoxy-N-((R)-1-(4-methoxyphenyl)ethyl)benzamide] | 2 | 9500 | 460 | 13
Cc1nc([C@@H](C)c2cc(Cl)c(F)c(C(=O)N[C@H]3CCC[C@@H]3O)c2OC(C)C)n2ccnc(N)c12 [Compound 37, 3-((S)-1-(8-amino-1-methylimidazo[1,5-a]pyrazin-3-yl)ethyl)-5-chloro-6-fluoro-2-isopropoxy-N-((1S,2S)-2-hydroxycyclopentyl)benzamide] | 0.56 | 11000 | 2500 | 11
Cc1nc([C@@H](C)c2cc(Cl)c(F)c(C(=O)N[C@]3(C)C[C@H](O)C3)c2OC(C)C)n2ccnc(N)c12 [Compound 38, 3-((S)-1-(8-amino-1-methylimidazo[1,5-a]pyrazin-3-yl)ethyl)-5-chloro-6-fluoro-2-isopropoxy-N-((1S,3R)-3-hydroxy-1-methylcyclobutyl)benzamide] | 1.4 | 6100 | 3200 | 25
Cc1nc([C@@H](C)c2cc(Cl)c(F)c(C(=O)N[C@]3(C)C[C@@H](O)C3)c2OC(C)C)n2ccnc(N)c12 [Compound 39, 3-((S)-1-(8-amino-1-methylimidazo[1,5-a]pyrazin-3-yl)ethyl)-5-chloro-6-fluoro-N-((1r,3S)-3-hydroxy-1-methylcyclobutyl)-2-isopropoxybenzamide] | 0.9 | 10000 | 28000 | 2.3
CCCNC(=O)c1c(F)c(Cl)cc([C@H](C)c2nc(C)c3c(N)nccn23)c1OC(C)C [Compound 41, (S)-3-(1-(8-amino-1-methylimidazo[1,5-a]pyrazin-3-yl)ethyl)-5-chloro-6-fluoro-2-isopropoxy-N-propylbenzamide] | 0.99 | 20000 | 5500 | 4.9
Cc1nc([C@@H](C)c2cc(Cl)c(F)c(C(=O)NCC3CC3)c2OC(C)C)n2ccnc(N)c12 [Compound 42, (S)-3-(1-(8-amino-1-methylimidazo[1,5-a]pyrazin-3-yl)ethyl)-5-chloro-N-(cyclopropylmethyl)-6-fluoro-2-isopropoxybenzamide] | 1.2 | 36000 | 4800 | 21
Cc1nc([C@@H](C)c2cc(Cl)c(F)c(C(=O)N3C[C@H](C)O[C@@H](C)C3)c2OC(C)C)n2ccnc(N)c12 [Compound 43, (3-((S)-1-(8-amino-1-methylimidazo[1,5-a]pyrazin-3-yl)ethyl)-5-chloro-6-fluoro-2-isopropoxyphenyl)((2S,6S)-2,6-dimethylmorpholino)methanone] | 2.2 | 21000 | 3400 | > 50
Cc1nc([C@@H](C)c2cc(Cl)c(F)c(C(=O)N[C@@H]3CCCOC3)c2OC(C)C)n2ccnc(N)c12 [Compound 44, 3-((S)-1-(8-amino-1-methylimidazo[1,5-a]pyrazin-3-yl)ethyl)-5-chloro-6-fluoro-2-isopropoxy-N-((R)-tetrahydro-2H-pyran-3-yl)benzamide] | 0.74 | 20000 | 5000 | 30
Cc1nc([C@@H](C)c2cc(Cl)c(F)c(C(=O)N[C@H]3CCCOC3)c2OC(C)C)n2ccnc(N)c12 [Compound 45, 3-((S)-1-(8-amino-1-methylimidazol[1,5-a]pyrazin-3-yl)ethyl)-5-chloro-6-fluoro-2-isopropoxy-N-((S)-tetrahydro-2H-pyran-3-yl)benzamide] | 1.1 | 16000 | 2800 | 32
Cc1nc([C@@H](C)c2cc(Cl)c(F)c(C(=O)N[C@H]3CCCC[C@@H]3O)c2OC(C)C)n2ccnc(N)c12 [Compound 46, 3((S)-1-(8-amino-1-methylimidazo[1,5-a]pyrazin-3-yl)ethyl)-5-chloro-6-fluoro-N-((1S,2S)-2-hydroxycyclohexyl)-2-isopropoxybenzamide] | 0.94 | 9700 | 2100 | 39
Cc1nc([C@@H](C)c2cc(Cl)c(F)c(C(=O)N[C@H]3CCCC[C@H]3O)c2OC(C)C)n2ccnc(N)c12 [Compound 47, 3-((S)-1-(8-amino-1-methylimidazo[1,5-a]pyrazin-3-yl)ethyl)-5-chloro-6-fluoro-N-((1S,2R)-2-hydroxycyclohexyl)-2-isopropoxybenzamide] | 2.5 | 27000 | 5800 | 26
Cc1nc([C@@H](C)c2cc(Cl)c(F)c(C(=O)NCC3CCCOC3)c2OC(C)C)n2ccnc(N)c12 (stereo partly drawn) [Compound 50, 3-((S)-1-(8-amino-1-methylimidazo[1,5-a]pyrazin-3-yl)ethyl)-5-chloro-6-fluoro-2-isopropoxy-N-((tetrahydro-2H-pyran-3-yl)methyl)benzamide] | 1.2 | 15000 | 6100 | 20
